In publication PMC8194517, “B^0AT1 Amino Acid Transporter Complexed With SARS-CoV-2 Receptor ACE2 Forms a Heterodimer Functional Unit: In Situ Conformation Using Radiation Inactivation Analysis” (Function, 2021):

Tested on: T1, B^0AT1 ([ACE2:B^0AT1] heterodimer functional unit)
T1 construct: gene SLC6A19; native, ileal apical brush border membrane vesicles, lyophilized and reconstituted; full-length; with Angiotensin-converting enzyme 2
Assay: radiotracer uptake into brush border membrane vesicles, […] s initial rate
Type: biochemical, Oryctolagus cuniculus
Settings: labelled compound; Na+-dependent zero-trans influx, 100 mM NaSCN, pH 7.5, 22°C; apparent Km, major component after subtracting diffusion and a minor 'Other' component

SMILES: C[C@H](N)C(=O)O [L-alanine]
- Km: 6.9 ± 0.8 mM
